How the values were obtained:
Assay in all cases: relative viability (nuclei count vs DMSO), 5 days (fraction); higher = more cells survive
Bexarotene + Palbociclib = compound: C=C(c1ccc(C(=O)O)cc1)c1cc2c(cc1C)C(C)(C)CCC2(C)C [Bexarotene] + CC(=O)c1c(C)c2cnc(Nc3ccc(N4CCNCC4)cn3)nc2n(C2CCCC2)c1=O [Palbociclib] (partner 0.5 µM)
Summary of the method: (§1)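 Lung cancer cell lines, seeded in 1536-well plates, were treated the following day by pin tool with a single drug or with five library-drug doses (not always all listed) in √10 steps on top of a fixed anchor-drug dose. Cells were fixed and nuclei stained in one step after 5 days, and nuclei were counted. Relative viability is the nuclei count for treated wells divided by that for vehicle wells, reported as medians of duplicate plates.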

Bexarotene + Crizotinib = compound: C=C(c1ccc(C(=O)O)cc1)c1cc2c(cc1C)C(C)(C)CCC2(C)C [Bexarotene] + C[C@@H](Oc1cc(-c2cnn(C3CCNCC3)c2)cnc1N)c1c(Cl)ccc(F)c1Cl [Crizotinib] (partner 1 µM)
Summary of the method: as §1

Bexarotene + AZD7762 = compound: C=C(c1ccc(C(=O)O)cc1)c1cc2c(cc1C)C(C)(C)CCC2(C)C [Bexarotene] + NC(=O)Nc1cc(-c2cccc(F)c2)sc1C(=O)N[C@H]1CCCNC1 [AZD7762] (partner 0.2 µM)
Summary of the method: as §1

Bexarotene + Vorinostat = compound: C=C(c1ccc(C(=O)O)cc1)c1cc2c(cc1C)C(C)(C)CCC2(C)C [Bexarotene] + O=C(CCCCCCC(=O)Nc1ccccc1)NO [Vorinostat] (partner 1 µM)
Summary of the method: as §1

Row | Cell Line | relative viability (Bexarotene + Palbociclib; first compound 0.08 µM) | relative viability (Bexarotene + Palbociclib; first compound 0.253 µM) | relative viability (Bexarotene + Palbociclib; first compound 0.8 µM) | relative viability (Bexarotene + Palbociclib; first compound 2.53 µM) | relative viability (Bexarotene + Palbociclib; first compound 8 µM) | relative viability (Bexarotene + Crizotinib; first compound 0.08 µM) | relative viability (Bexarotene + Crizotinib; first compound 0.253 µM) | relative viability (Bexarotene + Crizotinib; first compound 0.8 µM) | relative viability (Bexarotene + Crizotinib; first compound 2.53 µM) | relative viability (Bexarotene + Crizotinib; first compound 8 µM) | relative viability (Bexarotene + AZD7762; first compound 0.08 µM) | relative viability (Bexarotene + AZD7762; first compound 0.253 µM) | relative viability (Bexarotene + AZD7762; first compound 0.8 µM) | relative viability (Bexarotene + AZD7762; first compound 2.53 µM) | relative viability (Bexarotene + AZD7762; first compound 8 µM) | relative viability (Bexarotene + Vorinostat; first compound 0.08 µM) | relative viability (Bexarotene + Vorinostat; first compound 0.253 µM) | relative viability (Bexarotene + Vorinostat; first compound 0.8 µM) | relative viability (Bexarotene + Vorinostat; first compound 2.53 µM) | relative viability (Bexarotene + Vorinostat; first compound 8 µM)
1 | NCI-H838 | 0.23 | 0.209 | 0.176 | 0.216 | 0.245 | 0.929 | 0.884 | 0.891 | 0.843 | 0.866 | 1.03 | 1.09 | 0.989 | 0.978 | 0.938 | 0.764 | 0.767 | 0.742 | 0.585 | 0.693
2 | NCI-H1355 | 0.422 | 0.387 | 0.384 | 0.446 | 0.434 | 1.14 | 1.11 | 1.03 | 1.14 | 1.13 | 0.868 | 0.841 | 0.671 | 0.9 | 0.682 | 0.672 | 0.724 | 0.584 | 0.604 | 0.619
3 | NCI-H1437 | 0.317 | 0.306 | 0.294 | 0.291 | 0.286 | 0.92 | 0.959 | 0.918 | 0.922 | 0.909 | 1.2 | 1.14 | 1.19 | 1.14 | 1.15 | 0.814 | 1.01 | 0.886 | 0.872 | 0.84
4 | NCI-H1651 | 0.531 | 0.521 | 0.533 | 0.537 | 0.534 | 0.936 | 0.89 | 0.952 | 0.968 | 0.893 | 0.544 | 0.491 | 0.525 | 0.454 | 0.549 | 0.693 | 0.604 | 0.62 | 0.602 | 0.608
5 | NCI-H1666 | 0.618 | 0.746 | 0.545 | 0.631 | 0.565 | 1.04 | 0.897 | 0.769 | 0.869 | 0.952 | 1.02 | 0.839 | 0.82 | 0.817 | 0.895 | 0.815 | 0.959 | 0.829 | 0.916 | 0.791
6 | NCI-H1734 | 0.333 | 0.33 | 0.292 | 0.282 | 0.318 | 0.724 | 0.77 | 0.65 | 0.667 | 0.646 | 0.552 | 0.536 | 0.522 | 0.488 | 0.526 | 0.779 | 0.834 | 0.808 | 0.65 | 0.657
7 | NCI-H1755 | 0.463 | 0.479 | 0.438 | 0.48 | 0.44 | 0.85 | 1.09 | 0.971 | 0.848 | 0.802 | 0.536 | 0.6 | 0.439 | 0.569 | 0.54 | 0.85 | 0.991 | 0.815 | 0.652 | 0.662
8 | NCI-H1915 | 0.555 | 0.5 | 0.442 | 0.533 | 0.423 | 0.969 | 0.948 | 0.851 | 0.905 | 0.849 | 0.707 | 0.724 | 0.674 | 0.653 | 0.655 | 0.544 | 0.579 | 0.482 | 0.513 | 0.513
9 | NCI-H1944 | 0.419 | 0.427 | 0.369 | 0.379 | 0.345 | 1.3 | 1.17 | 1.18 | 1.26 | 1.02 | 0.738 | 0.733 | 0.749 | 0.694 | 0.739 | 0.74 | 0.683 | 0.669 | 0.675 | 0.532
10 | NCI-H1975 | 0.667 | 0.578 | 0.575 | 0.616 | 0.547 | 1.01 | 1.02 | 1.05 | 1.08 | 1.11 | 0.676 | 0.775 | 0.672 | 0.666 | 0.668 | 0.884 | 0.758 | 0.725 | 0.754 | 0.795
11 | NCI-H1993 | 0.654 | 0.668 | 0.597 | 0.693 | 0.733 | 0.926 | 0.751 | 0.71 | 0.831 | 0.746 | 0.805 | 0.83 | 0.618 | 0.851 | 0.636 | 0.851 | 0.691 | 0.783 | 0.716 | 0.672
12 | NCI-H2085 | 0.411 | 0.434 | 0.415 | 0.374 | 0.383 | 0.863 | 0.891 | 0.831 | 0.791 | 0.74 | 0.868 | 0.92 | 0.803 | 0.789 | 0.815 | 0.672 | 0.804 | 0.69 | 0.719 | 0.692
13 | NCI-H2087 | 0.254 | 0.238 | 0.198 | 0.274 | 0.226 | 0.854 | 1.14 | 0.716 | 0.827 | 0.867 | 1.33 | 1.3 | 1.2 | 1.35 | 1.16 | 1.07 | 0.765 | 0.642 | 1.09 | 0.841
14 | NCI-H2126 | 0.354 | 0.346 | 0.325 | 0.331 | 0.365 | 1.08 | 1.05 | 0.989 | 1.08 | 0.977 | 1.07 | 0.971 | 0.916 | 0.994 | 1.02 | 0.882 | 0.902 | 0.703 | 0.762 | 0.751
15 | NCI-H2170 | 0.343 | 0.403 | 0.324 | 0.325 | 0.331 | 1.1 | 1.11 | 1.15 | 1.02 | 1.05 | 0.877 | 0.796 | 0.812 | 0.775 | 0.735 | 0.746 | 0.913 | 0.753 | 0.699 | 0.687
16 | NCI-H2347 | 0.465 | 0.413 | 0.343 | 0.368 | 0.426 | 0.671 | 0.773 | 0.597 | 0.765 | 0.674 | 0.794 | 0.86 | 0.688 | 0.691 | 0.754 | 0.703 | 0.622 | 0.513 | 0.681 | 0.557

Reference: the supplement of paper PMC10307832
